This note sets out measurements from BindingDB's records for doi:10.1016/0028-3908(96)84644-2 (Abbott Laboratories, 1996).

The target in test [1] is 5-hydroxytryptamine receptor 1A/1B/1D/2C (Homo sapiens, UniProt P08908+P28221+P28222+P28335).
The target of test [2] is 5-hydroxytryptamine receptor 1A (Homo sapiens, UniProt P08908).
Test [3] concerns the target Gamma-aminobutyric acid type B receptor subunit 1 (UniProt Q9Z0U4).
Test [4] has as its target Delta-type opioid receptor (Homo sapiens, UniProt P41143).
The target in test [5] is Mu-type opioid receptor (Rattus norvegicus, UniProt P33535).
Test [6] deals with Substance-P receptor (Homo sapiens, UniProt P25103).
Test [7] addresses Adenosine receptor A1 (Homo sapiens, UniProt P30542).
Test [8] concerns the target Adenosine receptor A2a (Homo sapiens, UniProt P29274).
For test [9], the target named is Kappa-type opioid receptor (Homo sapiens, UniProt P41145).
The target in test [10] is Sodium-dependent dopamine transporter (Homo sapiens, UniProt Q01959).
Test [11] has as its target Sodium-dependent noradrenaline transporter (Homo sapiens, UniProt P23975).
Test [12] addresses Neuronal acetylcholine receptor subunit alpha-7 (Homo sapiens, UniProt P36544).
For test [13], the target named is Neuronal acetylcholine receptor subunit alpha-4 (Homo sapiens, UniProt P43681).
Test [14] deals with Neuromedin-K receptor (Homo sapiens, UniProt P29371).
The target in test [15] is D(2) dopamine receptor (Homo sapiens, UniProt P14416).
Test [16] has as its target Sodium channel protein type 2 subunit alpha (Homo sapiens, UniProt Q99250).
The target in test [17] is 5-hydroxytryptamine receptor 1B (Canis lupus familiaris, UniProt P79250).
For test [18], the target named is Solute carrier family 22 member 1 (Rattus norvegicus, UniProt Q63089).
The target of test [19] is Adrenergic alpha2 receptor (Mesocricetus auratus, UniProt Q60533).
Sequence of Adrenergic alpha2 receptor (Q60533 whole entry): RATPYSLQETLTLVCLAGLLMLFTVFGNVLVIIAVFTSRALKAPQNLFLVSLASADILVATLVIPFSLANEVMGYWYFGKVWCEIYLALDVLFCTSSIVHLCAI
Test [20] addresses Voltage-dependent N-type calcium channel subunit alpha-1B (Rattus norvegicus, UniProt Q02294).
Test [21] has as its target Voltage-dependent T-type calcium channel subunit alpha-1H (Homo sapiens, UniProt O95180).
Test [22] has as its target Chloride channel protein 1 (Homo sapiens, UniProt P35523).
Test [23] concerns the target Acetylcholine receptor subunit alpha (Rattus norvegicus, UniProt P25108).
Test [24] addresses Putative choline uptake ABC transporter permease protein (Rhizobium meliloti (strain 1021), UniProt Q92V96).
In test [25] the target is Gamma-aminobutyric acid type B receptor subunit 1 (Homo sapiens, UniProt Q9UBS5).
Test [26] has as its target Glutamate receptor ionotropic, kainate 2 (Homo sapiens, UniProt Q13002).
Test [27] has as its target Glutamate receptor ionotropic, NMDA 1 (Rattus norvegicus, UniProt P35439).
In test [28] the target is GLRA1 protein (Homo sapiens, UniProt Q14C71).
Test [29] concerns the target Beta-nerve growth factor (Homo sapiens, UniProt P01138).
For test [30], the target named is Apamin (Apis mellifera, UniProt P01500).
The target in test [31] is ATP-sensitive inward rectifier potassium channel 11 (Homo sapiens, UniProt Q14654).
Test [32] concerns the target Potassium voltage-gated channel subfamily A member 1 (Homo sapiens, UniProt Q09470).
For test [33], the target named is Protein kinase C (Drosophila melanogaster, UniProt P13678).
The target in test [34] is Somatostatin (Rattus norvegicus, UniProt P60042).
Test [35] deals with Beta-2 adrenergic receptor (Mus musculus, UniProt P18762).
Test [36] deals with Glutamate receptor 3 (Homo sapiens, UniProt P42263).
Test [37] addresses Substance-K receptor (Bos taurus, UniProt P05363).
Test [38] has as its target 5-hydroxytryptamine receptor 2C (Homo sapiens, UniProt P28335).
In test [39] the target is Gamma-aminobutyric acid receptor subunit alpha-1 (Homo sapiens, UniProt P14867).

By Ki is commonly meant the equilibrium dissociation constant of an inhibitor or competing ligand from its target.

Where “and” joins values, the source holds several entries; their conditions need not be identical. Equal entries are not always repeated.

Sequence of Acetylcholine receptor subunit alpha (P25108 whole entry): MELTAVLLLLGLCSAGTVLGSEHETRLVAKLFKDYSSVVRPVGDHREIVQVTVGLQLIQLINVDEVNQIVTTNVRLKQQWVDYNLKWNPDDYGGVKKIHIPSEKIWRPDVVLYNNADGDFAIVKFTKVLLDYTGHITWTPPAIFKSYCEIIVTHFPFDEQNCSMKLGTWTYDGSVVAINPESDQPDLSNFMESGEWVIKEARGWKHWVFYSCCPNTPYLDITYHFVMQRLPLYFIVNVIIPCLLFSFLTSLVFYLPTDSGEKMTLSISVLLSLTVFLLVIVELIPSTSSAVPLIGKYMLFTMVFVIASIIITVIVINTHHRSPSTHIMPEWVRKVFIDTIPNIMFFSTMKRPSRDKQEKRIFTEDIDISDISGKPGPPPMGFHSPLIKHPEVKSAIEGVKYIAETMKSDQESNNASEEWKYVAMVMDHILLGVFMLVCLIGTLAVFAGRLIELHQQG
Sequence of Neuronal acetylcholine receptor subunit alpha-7 (P36544 whole entry): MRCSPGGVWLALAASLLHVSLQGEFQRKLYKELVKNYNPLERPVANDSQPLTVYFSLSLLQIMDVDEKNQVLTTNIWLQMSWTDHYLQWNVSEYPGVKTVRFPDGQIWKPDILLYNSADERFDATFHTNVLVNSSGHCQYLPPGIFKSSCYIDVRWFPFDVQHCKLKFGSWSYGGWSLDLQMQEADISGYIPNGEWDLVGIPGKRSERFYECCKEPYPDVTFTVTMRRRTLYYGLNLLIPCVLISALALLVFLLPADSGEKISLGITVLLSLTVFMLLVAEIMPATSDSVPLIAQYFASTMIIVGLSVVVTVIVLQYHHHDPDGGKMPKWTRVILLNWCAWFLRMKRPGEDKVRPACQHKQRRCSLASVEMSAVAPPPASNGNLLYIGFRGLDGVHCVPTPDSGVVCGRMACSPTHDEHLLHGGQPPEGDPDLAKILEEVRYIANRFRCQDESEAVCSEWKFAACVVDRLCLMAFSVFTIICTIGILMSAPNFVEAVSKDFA
Sequence of Adenosine receptor A1 (P30542 whole entry): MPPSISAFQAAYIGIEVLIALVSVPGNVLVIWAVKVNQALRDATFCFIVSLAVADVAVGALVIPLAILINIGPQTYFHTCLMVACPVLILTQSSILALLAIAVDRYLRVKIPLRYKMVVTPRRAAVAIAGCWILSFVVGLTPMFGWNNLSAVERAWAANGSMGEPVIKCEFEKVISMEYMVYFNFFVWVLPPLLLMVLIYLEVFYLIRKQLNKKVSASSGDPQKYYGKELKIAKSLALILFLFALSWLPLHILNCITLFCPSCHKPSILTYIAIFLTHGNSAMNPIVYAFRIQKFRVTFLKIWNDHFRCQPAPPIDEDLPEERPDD
Sequence of Substance-K receptor (P05363 whole entry): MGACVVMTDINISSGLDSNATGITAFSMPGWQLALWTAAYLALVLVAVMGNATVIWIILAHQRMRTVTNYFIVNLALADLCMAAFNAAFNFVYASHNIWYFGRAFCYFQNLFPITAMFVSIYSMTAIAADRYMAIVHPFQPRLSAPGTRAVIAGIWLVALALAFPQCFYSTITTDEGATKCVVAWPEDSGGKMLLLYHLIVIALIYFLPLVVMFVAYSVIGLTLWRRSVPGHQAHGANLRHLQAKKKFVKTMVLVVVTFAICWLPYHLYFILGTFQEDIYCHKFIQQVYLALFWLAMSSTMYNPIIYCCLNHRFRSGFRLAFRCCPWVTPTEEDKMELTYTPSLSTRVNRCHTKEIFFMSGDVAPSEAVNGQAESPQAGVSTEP
Sequence of Delta-type opioid receptor (P41143 whole entry): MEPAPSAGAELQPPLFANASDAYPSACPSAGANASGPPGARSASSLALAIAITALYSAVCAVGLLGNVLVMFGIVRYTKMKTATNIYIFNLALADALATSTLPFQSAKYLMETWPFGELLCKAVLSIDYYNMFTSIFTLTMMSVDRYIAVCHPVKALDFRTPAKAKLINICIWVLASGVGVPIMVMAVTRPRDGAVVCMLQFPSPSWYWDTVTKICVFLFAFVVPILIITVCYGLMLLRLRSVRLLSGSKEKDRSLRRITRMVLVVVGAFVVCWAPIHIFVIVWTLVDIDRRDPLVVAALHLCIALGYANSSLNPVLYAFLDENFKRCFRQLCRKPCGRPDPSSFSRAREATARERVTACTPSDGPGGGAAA
Sequence of Voltage-dependent N-type calcium channel subunit alpha-1B (Q02294 whole entry): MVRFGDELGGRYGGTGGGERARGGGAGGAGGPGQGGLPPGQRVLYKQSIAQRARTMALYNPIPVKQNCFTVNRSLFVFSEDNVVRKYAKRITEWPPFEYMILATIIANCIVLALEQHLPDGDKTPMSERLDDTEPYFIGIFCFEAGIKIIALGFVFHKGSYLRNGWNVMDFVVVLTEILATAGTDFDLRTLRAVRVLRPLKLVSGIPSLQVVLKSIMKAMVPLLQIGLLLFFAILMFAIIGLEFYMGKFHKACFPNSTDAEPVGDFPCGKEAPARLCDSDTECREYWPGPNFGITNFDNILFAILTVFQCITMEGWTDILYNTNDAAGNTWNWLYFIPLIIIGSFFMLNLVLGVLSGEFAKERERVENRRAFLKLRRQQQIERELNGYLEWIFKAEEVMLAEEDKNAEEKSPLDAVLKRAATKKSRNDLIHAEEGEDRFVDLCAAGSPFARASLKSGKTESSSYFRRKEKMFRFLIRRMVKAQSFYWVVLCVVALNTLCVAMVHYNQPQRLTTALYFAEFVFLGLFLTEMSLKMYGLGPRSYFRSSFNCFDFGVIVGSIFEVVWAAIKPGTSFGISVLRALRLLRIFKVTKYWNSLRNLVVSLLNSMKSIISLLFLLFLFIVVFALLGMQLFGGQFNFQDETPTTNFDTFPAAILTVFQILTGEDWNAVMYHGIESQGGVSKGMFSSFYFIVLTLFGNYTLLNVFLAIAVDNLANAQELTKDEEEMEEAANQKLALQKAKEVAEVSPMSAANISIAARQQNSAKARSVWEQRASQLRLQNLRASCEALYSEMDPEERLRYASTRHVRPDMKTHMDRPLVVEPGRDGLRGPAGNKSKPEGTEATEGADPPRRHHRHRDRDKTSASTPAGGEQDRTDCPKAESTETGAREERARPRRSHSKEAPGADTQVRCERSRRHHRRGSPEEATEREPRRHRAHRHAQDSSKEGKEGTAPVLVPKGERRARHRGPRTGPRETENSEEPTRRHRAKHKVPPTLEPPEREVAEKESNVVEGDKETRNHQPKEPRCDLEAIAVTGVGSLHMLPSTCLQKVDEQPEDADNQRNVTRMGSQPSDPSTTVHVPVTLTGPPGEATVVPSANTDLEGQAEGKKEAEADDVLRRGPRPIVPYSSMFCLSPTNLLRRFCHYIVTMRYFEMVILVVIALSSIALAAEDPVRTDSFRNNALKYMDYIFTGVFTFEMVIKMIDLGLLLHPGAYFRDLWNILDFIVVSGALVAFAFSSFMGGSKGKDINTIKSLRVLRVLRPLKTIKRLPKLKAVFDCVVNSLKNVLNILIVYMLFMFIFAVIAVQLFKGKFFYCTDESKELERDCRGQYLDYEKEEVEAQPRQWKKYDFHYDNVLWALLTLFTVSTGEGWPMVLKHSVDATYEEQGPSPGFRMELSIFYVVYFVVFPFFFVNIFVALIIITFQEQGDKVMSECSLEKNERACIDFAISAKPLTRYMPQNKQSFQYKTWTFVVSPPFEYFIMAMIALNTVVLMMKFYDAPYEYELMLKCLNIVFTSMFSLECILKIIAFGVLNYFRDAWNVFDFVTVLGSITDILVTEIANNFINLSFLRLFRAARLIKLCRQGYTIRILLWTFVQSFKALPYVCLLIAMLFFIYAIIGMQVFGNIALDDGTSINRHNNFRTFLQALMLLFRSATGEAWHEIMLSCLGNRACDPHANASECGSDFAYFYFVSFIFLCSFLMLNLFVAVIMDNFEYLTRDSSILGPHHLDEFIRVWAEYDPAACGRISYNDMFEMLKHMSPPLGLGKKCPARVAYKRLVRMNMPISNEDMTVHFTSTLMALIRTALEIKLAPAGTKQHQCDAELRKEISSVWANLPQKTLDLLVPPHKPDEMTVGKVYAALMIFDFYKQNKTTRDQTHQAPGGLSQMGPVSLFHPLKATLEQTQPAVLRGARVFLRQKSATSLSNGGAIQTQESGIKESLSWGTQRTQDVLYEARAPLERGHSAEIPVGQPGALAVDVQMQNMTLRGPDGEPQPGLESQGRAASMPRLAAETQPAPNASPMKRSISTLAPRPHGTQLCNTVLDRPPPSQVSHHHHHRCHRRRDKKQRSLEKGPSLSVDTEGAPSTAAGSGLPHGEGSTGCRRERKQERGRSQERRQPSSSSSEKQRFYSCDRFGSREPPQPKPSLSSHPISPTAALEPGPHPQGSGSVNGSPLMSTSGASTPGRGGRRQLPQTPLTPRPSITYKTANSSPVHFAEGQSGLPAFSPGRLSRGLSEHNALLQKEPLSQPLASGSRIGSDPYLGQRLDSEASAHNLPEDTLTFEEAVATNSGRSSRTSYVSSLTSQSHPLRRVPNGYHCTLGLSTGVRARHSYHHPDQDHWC
Sequence of Potassium voltage-gated channel subfamily A member 1 (Q09470 whole entry): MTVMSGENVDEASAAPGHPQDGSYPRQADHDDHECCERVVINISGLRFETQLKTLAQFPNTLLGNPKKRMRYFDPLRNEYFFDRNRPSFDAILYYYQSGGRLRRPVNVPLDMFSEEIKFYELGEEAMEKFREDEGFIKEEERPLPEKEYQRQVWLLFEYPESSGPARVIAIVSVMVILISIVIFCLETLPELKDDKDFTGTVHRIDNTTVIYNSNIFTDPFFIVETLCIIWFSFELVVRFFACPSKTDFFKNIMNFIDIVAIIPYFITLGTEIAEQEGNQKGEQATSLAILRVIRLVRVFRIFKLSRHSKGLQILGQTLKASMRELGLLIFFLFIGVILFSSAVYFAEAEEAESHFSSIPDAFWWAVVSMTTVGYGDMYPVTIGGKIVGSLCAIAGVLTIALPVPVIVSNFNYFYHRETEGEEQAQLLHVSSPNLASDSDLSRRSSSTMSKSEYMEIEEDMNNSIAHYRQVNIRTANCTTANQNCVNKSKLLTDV

Consider `c1cncc(OC[C@@H]2CCN2)c1`, for which the Ki in [1], in test [2], in test [3], in test [4], in [5] and in test [6] was over 10 µM each time. The Ki in test [7] is over 10 µM; in test [8] it was over 10 µM; in [9] it was over 10 µM; in test [10] it was over 10 µM; in [11], over 10 µM; in test [12] it was 1.27 µM and 0.148 µM. In addition, the Ki in [13] was 0.04 nM; in [14] it was over 10 µM; in test [15] it was over 10 µM; in test [16] it was over 10 µM; in test [17], over 10 µM; in test [18] it was over 10 µM. Moreover, the Ki in [19] is over 10 µM; in [20], over 10 µM; in test [21], over 10 µM; in [22] it was over 10 µM; in test [23], 0.384 µM and 0.314 µM; in test [24], over 10 µM. Further, the Ki in test [25], in test [26], in test [27], in test [28], in test [29] and in test [30] was over 10 µM each time. For the same compound, the Ki in [31], in [32], in test [33], in [34], in [35] and in test [36] was over 10 µM in each case. The Ki in test [37], in [38] and in test [39] was over 10 µM in each case.

The compound `CN1CCC[C@H]1c1cccnc1` [(R,S)-nicotine] came in with a Ki in [23] of over 10 µM.
